What was measured:
[1] = system: OE33 cells; conditions: read-out: EC50, OE33 colony formation and other Notch-dependent cell lines; as previously reported; cited from earlier work
[2] = system: small intestines; experiment: PAS staining of small intestine, 5 daily treatments; type: in vivo; conditions: 5 daily i.p. treatments; NADI-351 up to 40 mg/kg, DBZ 10 mg/kg
[3] = system: hNotch1^ICD; experiment: Inducible Notch1^ICD-driven luciferase reporter assay in 293A cells; type: cell-based, human; conditions: read-out: IC50, inducible Notch1^ICD-responsive luciferase reporter, 24 h, normalized to cell viability

## C[C@H](NC(=O)Cc1cc(F)cc(F)c1)C(=O)N[C@H](C(=O)OC(C)(C)C)c1ccccc1 [DAPT]
[1]
  EC50: 10 to 15 µM

## C[C@H](NC(=O)Cc1cc(F)cc(F)c1)C(=O)N[C@@H]1C(=O)N(C)c2ccccc2-c2ccccc21 [DBZ]
[2]
  GI toxicity / goblet cell metaplasia (PAS staining): induction of goblet cell metaplasia

## CCOC(=O)COc1ccc(/C=C2\SC(=S)NC2=O)cc1OC [IMR-1]
[3]
  IC50: > 40 µM
[1]
  EC50: 10 to 15 µM

Reference: article PMC8655881 (Cancer research, 2021)
